One experiment has as its target full length hCDK5/p25 (Homo sapiens, UniProt Q00535). The experiment can be described thus: γ-33P ATP filter binding assay, hCDK5/p25. It counts as biochemical. The settings on record: for IC50: CDK5/p25 IC50, ATP (Km) 30 μM, Table 5; for inhibition at 50 µM: read-out: CDK5/p25 inhibition @50μM.
The next experiment deals with CDK5/p25 (Homo sapiens, UniProt Q00535). Kind of experiment: ATP competitive binding assay. Format: biochemical. The settings on record: IC50 at increasing ATP concentrations, Lineweaver-Burk plot.
CDK5/p25, sequence (Q00535 whole entry): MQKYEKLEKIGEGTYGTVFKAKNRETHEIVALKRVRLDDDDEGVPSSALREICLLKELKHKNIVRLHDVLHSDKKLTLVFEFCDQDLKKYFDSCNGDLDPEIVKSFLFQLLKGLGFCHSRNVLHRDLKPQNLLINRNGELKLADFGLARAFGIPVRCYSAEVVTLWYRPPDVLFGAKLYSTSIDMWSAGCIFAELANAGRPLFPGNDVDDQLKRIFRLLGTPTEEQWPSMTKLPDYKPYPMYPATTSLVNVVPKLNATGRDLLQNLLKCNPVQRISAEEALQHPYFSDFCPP
CDK5/p25, sequence (Q15078 99-307 partner limits assumed): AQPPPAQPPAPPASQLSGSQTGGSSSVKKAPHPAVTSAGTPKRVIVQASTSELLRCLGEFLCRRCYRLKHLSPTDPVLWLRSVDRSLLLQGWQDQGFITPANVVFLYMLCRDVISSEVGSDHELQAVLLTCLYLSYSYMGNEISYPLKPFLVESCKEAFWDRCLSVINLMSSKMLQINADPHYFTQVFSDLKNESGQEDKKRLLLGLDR
The target in a further experiment is CDK1/B (Homo sapiens, UniProt P06493). Kind of experiment: Kinase selectivity assay CDK1/B. It counts as biochemical.
CDK1/B, sequence (P06493 whole entry): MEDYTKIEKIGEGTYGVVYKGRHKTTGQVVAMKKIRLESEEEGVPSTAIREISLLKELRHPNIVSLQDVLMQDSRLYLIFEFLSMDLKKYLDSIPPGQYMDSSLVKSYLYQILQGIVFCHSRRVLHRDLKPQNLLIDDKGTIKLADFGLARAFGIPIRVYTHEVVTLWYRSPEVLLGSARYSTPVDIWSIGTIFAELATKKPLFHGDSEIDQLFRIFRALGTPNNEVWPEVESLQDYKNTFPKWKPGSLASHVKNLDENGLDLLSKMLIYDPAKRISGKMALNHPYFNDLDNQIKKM
CDK1/B, sequence (P14635 whole entry partner): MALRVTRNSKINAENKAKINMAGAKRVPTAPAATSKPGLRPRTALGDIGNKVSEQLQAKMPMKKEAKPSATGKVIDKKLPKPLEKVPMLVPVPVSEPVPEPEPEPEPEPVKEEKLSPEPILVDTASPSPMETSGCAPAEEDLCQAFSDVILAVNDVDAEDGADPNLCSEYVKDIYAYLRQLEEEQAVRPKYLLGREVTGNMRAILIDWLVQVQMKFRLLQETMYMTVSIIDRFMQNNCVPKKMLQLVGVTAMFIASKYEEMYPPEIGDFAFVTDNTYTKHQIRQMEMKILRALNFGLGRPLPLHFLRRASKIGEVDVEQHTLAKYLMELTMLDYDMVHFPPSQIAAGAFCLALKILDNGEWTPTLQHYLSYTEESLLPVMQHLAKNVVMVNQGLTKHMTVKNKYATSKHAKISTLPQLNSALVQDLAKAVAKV
The next experiment addresses CDK2/A (Homo sapiens, UniProt P24941). The experiment can be described thus: Kinase selectivity assay CDK2/A. It counts as biochemical. Particulars: read-out: CDK2/A % inhibition at 20 μM.
A further experiment addresses CDK2/E (Homo sapiens, UniProt P24941). The experiment can be described thus: Kinase selectivity assay CDK2/E. The settings on record: read-out: CDK2/E % inhibition at 20 μM. Format: biochemical.
The target of a further experiment is CDK4/D1 (Homo sapiens, UniProt P11802). Kind of experiment: Kinase selectivity assay CDK4/D1. Format: biochemical. Particulars: 20 μM compound, ATP Km 90 μM.
CDK4/D1, sequence (P11802 whole entry): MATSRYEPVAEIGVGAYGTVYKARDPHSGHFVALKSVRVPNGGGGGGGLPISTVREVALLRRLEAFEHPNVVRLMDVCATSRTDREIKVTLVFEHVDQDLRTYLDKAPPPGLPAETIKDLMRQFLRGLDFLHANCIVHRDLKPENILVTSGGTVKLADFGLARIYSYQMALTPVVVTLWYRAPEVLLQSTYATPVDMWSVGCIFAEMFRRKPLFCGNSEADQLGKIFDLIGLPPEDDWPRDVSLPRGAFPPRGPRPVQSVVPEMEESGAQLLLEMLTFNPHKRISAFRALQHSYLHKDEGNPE
CDK4/D1, sequence (P24385 whole entry partner): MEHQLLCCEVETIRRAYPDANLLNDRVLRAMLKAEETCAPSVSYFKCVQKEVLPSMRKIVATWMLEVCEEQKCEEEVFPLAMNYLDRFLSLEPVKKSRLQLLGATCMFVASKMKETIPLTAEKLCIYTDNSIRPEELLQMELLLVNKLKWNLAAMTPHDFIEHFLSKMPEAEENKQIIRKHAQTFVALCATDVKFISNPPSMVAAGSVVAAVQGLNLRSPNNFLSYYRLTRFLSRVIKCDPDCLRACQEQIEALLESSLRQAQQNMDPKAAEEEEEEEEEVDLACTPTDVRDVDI
The target in another experiment is CDK6/D1 (Homo sapiens, UniProt Q00534). Kind of experiment: Kinase selectivity assay CDK6/D1. Particulars: 20 μM compound, ATP Km 30 μM. It counts as biochemical.
CDK6/D1, sequence (Q00534 whole entry): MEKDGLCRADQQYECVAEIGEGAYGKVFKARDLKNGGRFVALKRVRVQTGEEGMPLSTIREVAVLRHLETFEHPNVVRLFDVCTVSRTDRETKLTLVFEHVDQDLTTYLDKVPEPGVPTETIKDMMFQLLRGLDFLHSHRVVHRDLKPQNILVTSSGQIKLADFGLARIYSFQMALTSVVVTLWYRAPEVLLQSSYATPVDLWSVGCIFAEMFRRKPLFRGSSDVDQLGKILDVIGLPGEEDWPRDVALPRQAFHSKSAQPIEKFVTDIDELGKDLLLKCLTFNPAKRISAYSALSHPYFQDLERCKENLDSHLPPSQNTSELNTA
CDK6/D1, sequence (P24385 whole entry partner): as the sequence (P24385 whole entry partner) above
In the next experiment the target is CK1a1 (Homo sapiens, UniProt P48729). The experiment can be described thus: Kinase selectivity assay CK1a1. It counts as biochemical. The settings on record: read-out: CK1a1 % inhibition at 20 μM.
CK1a1, sequence (P48729 whole entry): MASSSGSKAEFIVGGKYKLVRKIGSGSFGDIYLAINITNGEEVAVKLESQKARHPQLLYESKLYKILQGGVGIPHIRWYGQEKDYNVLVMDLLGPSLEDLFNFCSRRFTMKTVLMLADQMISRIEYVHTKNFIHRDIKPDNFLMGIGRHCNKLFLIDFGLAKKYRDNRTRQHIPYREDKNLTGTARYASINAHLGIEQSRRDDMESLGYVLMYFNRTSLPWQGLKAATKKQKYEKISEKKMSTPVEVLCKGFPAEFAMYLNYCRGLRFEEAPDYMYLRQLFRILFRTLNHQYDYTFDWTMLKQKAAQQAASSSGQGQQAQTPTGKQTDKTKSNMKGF
The next experiment addresses DYRK1/DYRK1A (Homo sapiens, UniProt Q13627). Kind of experiment: Kinase selectivity assay DYRK1/DYRK1A. It counts as biochemical. The settings on record: read-out: DYRK1/DYRK1A % inhibition at 20 μM.
For a further experiment, the target named is GSK3α (Homo sapiens, UniProt P49840). The experiment can be described thus: Kinase selectivity assay GSK3α. Format: biochemical. Particulars: read-out: GSK3α % inhibition at 20 μM.
The target of a further experiment is GSK3β (Homo sapiens, UniProt P49841). The experiment can be described thus: Kinase selectivity assay GSK3β. Format: biochemical. The settings on record: read-out: GSK3β % inhibition at 20 μM.
GSK3β, sequence (P49841 whole entry): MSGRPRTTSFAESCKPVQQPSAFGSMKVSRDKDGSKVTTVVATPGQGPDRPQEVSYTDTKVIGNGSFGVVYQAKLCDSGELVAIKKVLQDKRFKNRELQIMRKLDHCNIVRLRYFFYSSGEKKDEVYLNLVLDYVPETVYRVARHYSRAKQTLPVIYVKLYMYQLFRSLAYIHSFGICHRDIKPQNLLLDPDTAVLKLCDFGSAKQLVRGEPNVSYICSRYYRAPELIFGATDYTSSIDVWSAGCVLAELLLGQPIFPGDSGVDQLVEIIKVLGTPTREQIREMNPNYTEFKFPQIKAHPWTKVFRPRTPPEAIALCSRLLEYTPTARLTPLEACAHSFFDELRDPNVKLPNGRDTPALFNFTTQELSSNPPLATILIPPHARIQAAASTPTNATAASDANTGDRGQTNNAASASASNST
The target in another experiment is KDR/VEGFR2 (Homo sapiens, UniProt P35968). The experiment can be described thus: Kinase selectivity assay KDR/VEGFR2. It counts as biochemical. Particulars: read-out: KDR/VEGFR2 % inhibition at 20 μM.
Another experiment has as its target PKA (Homo sapiens, UniProt P17612). Kind of experiment: Kinase selectivity assay PKA. It counts as biochemical.
The target of a further experiment is PKCα (Homo sapiens, UniProt P17252). Kind of experiment: Kinase selectivity assay PKCα. Format: biochemical.
In a further experiment the target is T1, PKCε (Homo sapiens, UniProt Q02156).
T1 sequence (Q02156 1-737): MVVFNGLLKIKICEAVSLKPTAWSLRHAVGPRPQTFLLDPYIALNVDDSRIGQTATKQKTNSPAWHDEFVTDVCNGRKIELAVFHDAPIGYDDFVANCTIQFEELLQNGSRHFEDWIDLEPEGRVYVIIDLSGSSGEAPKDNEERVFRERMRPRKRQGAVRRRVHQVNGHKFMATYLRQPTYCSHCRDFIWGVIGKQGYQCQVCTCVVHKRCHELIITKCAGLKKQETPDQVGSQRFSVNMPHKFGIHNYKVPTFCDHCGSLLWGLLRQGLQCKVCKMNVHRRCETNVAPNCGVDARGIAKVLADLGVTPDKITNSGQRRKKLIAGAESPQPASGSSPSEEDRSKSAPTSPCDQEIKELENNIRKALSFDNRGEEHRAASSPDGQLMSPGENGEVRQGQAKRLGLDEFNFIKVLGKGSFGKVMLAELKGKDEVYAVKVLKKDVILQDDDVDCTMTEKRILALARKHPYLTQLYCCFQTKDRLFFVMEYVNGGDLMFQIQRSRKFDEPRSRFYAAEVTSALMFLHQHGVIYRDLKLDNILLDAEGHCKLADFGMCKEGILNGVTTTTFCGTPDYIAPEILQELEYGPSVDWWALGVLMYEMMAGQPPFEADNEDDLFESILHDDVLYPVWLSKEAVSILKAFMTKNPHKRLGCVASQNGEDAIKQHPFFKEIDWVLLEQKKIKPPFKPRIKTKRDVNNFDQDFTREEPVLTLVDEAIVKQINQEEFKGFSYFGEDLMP
The experiment can be described thus: Kinase selectivity assay PKCε. The settings on record: read-out: PKCε % inhibition at 20 μM. Format: biochemical.

The target in a further experiment is WEE1 (Homo sapiens, UniProt P30291). The experiment can be described thus: Kinase selectivity assay WEE1. It counts as biochemical.
WEE1, sequence (P30291 whole entry): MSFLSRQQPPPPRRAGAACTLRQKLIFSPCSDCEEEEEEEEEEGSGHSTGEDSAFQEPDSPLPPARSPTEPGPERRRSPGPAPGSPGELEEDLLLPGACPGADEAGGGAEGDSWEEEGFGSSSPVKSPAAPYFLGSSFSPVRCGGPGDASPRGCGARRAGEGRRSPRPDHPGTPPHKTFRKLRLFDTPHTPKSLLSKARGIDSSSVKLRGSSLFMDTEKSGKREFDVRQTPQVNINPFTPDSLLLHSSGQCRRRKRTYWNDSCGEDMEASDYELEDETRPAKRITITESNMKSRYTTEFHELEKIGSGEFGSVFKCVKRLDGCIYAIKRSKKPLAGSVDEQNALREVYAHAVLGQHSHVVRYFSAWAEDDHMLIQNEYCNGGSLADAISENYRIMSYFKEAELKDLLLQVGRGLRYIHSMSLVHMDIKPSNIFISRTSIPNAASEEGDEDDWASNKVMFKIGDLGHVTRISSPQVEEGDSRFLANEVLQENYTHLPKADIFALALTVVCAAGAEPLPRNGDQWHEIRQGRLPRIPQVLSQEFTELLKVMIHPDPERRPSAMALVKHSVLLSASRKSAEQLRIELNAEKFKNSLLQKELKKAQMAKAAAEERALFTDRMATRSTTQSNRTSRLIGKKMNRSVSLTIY
The target in another experiment is full length hCDK2/E (Homo sapiens, UniProt P24941). Kind of experiment: γ-33P ATP filter binding assay, hCDK2/E.

full length hCDK5/p25, sequence (Q00535 whole entry): as the sequence (Q00535 whole entry) above
full length hCDK5/p25, sequence (Q15078 99-307 partner limits assumed): as the sequence (Q15078 99-307 partner limits assumed) above

Regarding `O=C(Nc1ccccn1)c1cc2c(Cl)nc3ccccc3c2s1` [Compound 25w, 4-chloro-N-(pyridin-2-yl)thieno[3,2-c]quinoline-2-carboxamide], the IC50 – broadly, the concentration that inhibits the measured activity by half – at full length hCDK5/p25 is 3.8 µM. Also, the inhibition at 50 µM worked out at 75.4% on full length hCDK5/p25 and 21.8% at full length hCDK2/E (read-out: CDK2/E inhibition @50μM, 50 μM compound, ATP (Km) 65 μM, Table 5). Further, the “mode of inhibition with respect to ATP” value at CDK5/p25 is listed as “ATP non-competitive inhibition”. For the same compound, the inhibition at 20 µM at CDK1/B (read-out: CDK1/B % inhibition at 20 μM) stood at 35%; on CDK2/A, 45%; at CDK2/E, 6%; at CK1a1, 19%; on DYRK1/DYRK1A, 4%; at GSK3α it was 22%. The inhibition at 20 µM was determined as 41% on GSK3β; 44% at KDR/VEGFR2; 1% at PKCα (read-out: PKCα % inhibition at 20 μM); 4% at PKCε; 2% on WEE1 (read-out: WEE1 % inhibition at 20 μM). Further, the “CDK4/D1 % inhibition at 20 μM” value at CDK4/D1 is “No inhibition”. Moreover, the “CDK6/D1 % inhibition at 20 μM” value at CDK6/D1 is “No inhibition”. In addition, the “PKA % inhibition at 20 μM” value on PKA (20 μM compound, ATP Km 20 μM) is listed as “No inhibition”.

`O=C(Nc1ccccc1C(=O)O)c1cc2c(=O)[nH]c3ccccc3c2s1` [Compound 25s, 2-(4-oxo-4,5-dihydrothieno[3,2-c]quinoline-2-carboxamido)benzoic acid] returned an IC50 at full length hCDK5/p25 of 4.3 µM. For the same compound, at full length hCDK5/p25, the inhibition at 50 µM stood at 70.6%. Moreover, the “mode of inhibition with respect to ATP” value on CDK5/p25 is listed as “ATP non-competitive inhibition”. The “CDK1/B % inhibition at 20 μM” value at CDK1/B (20 μM compound, ATP Km 5 μM) is on record as “No inhibition”. For the same compound, the inhibition at 20 µM at CDK2/A is 50%; on CDK2/E it was 5%; at CK1a1 it was 41%; at DYRK1/DYRK1A, 23%; at GSK3α, 79%; at GSK3β it was 81%. Besides, the inhibition at 20 µM on KDR/VEGFR2 is 88%; at PKA (read-out: PKA % inhibition at 20 μM) it was 89%; at PKCε, 7%. Moreover, on CDK4/D1, the “CDK4/D1 % inhibition at 20 μM” value is recorded as “No inhibition”. For the same compound, on CDK6/D1, the “CDK6/D1 % inhibition at 20 μM” value is recorded as “No inhibition”. Besides, the “PKCα % inhibition at 20 μM” value at PKCα (20 μM compound, ATP Km 10 μM) was “No inhibition”. At WEE1 (20 μM compound, ATP Km 50 μM), the “WEE1 % inhibition at 20 μM” value is “No inhibition”. Also, on full length hCDK2/E (50 μM compound, ATP (Km) 65 μM, Table 5), the “CDK2/E inhibition @50μM” value was “No inhibition”.

(Values after article PMC4254530 (Bioorganic & medicinal chemistry, 2014).)
